Assay results from PubChem BioAssay (NCI).
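Assay format: 96-well plates, 48-hour exposure. TGI is the concentration that stops growth completely.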

How the values were obtained:
Assay in all cases: inhibition of tumour cell growth, NCI panel, 48 h
OVCAR-8 ovarian = system: OVCAR-8 ovarian
A498 renal = system: A498 renal
HOP-62 NSCLC = system: HOP-62 NSCLC
HCT-116 colon = system: HCT-116 colon
KM12 colon = system: KM12 colon
HT29 colon = system: HT29 colon
OVCAR-4 ovarian = system: OVCAR-4 ovarian
MOLT-4 leukemia = system: MOLT-4 leukemia
A549 NSCLC = system: A549 NSCLC
HS 578T breast = system: HS 578T breast
NCI-H460 lung = system: NCI-H460 lung
MCF7 breast = system: MCF7 breast
CCRF-CEM leukemia = system: CCRF-CEM leukemia
UO-31 renal = system: UO-31 renal
HCT-15 colon = system: HCT-15 colon
CAKI-1 renal = system: CAKI-1 renal
K-562 leukemia = system: K-562 leukemia
SN12C renal = system: SN12C renal
SK-OV-3 ovarian = system: SK-OV-3 ovarian
BT-549 breast = system: BT-549 breast
786-0 renal = system: 786-0 renal
RPMI-8226 leukemia = system: RPMI-8226 leukemia
PC-3 prostate = system: PC-3 prostate
MDA-N = system: MDA-N
SF-539 CNS = system: SF-539 CNS
DU-145 prostate = system: DU-145 prostate
U251 CNS = system: U251 CNS
ACHN renal = system: ACHN renal
SW-620 colon = system: SW-620 colon
COLO 205 colon = system: COLO 205 colon
SNB-75 CNS = system: SNB-75 CNS
UACC-257 melanoma = system: UACC-257 melanoma
SF-268 CNS = system: SF-268 CNS
MDA-MB-435 = system: MDA-MB-435
LOX IMVI melanoma = system: LOX IMVI melanoma
SF-295 CNS = system: SF-295 CNS
NCI-H226 lung = system: NCI-H226 lung
MALME-3M melanoma = system: MALME-3M melanoma
HCC-2998 colon = system: HCC-2998 colon
M14 melanoma = system: M14 melanoma
T-47D breast = system: T-47D breast
OVCAR-5 ovarian = system: OVCAR-5 ovarian
UACC-62 melanoma = system: UACC-62 melanoma
EKVX NSCLC = system: EKVX NSCLC
OVCAR-3 ovarian = system: OVCAR-3 ovarian
MDA-MB-231 breast = system: MDA-MB-231 breast
SK-MEL-2 melanoma = system: SK-MEL-2 melanoma
SNB-19 CNS = system: SNB-19 CNS
SK-MEL-28 melanoma = system: SK-MEL-28 melanoma
NCI/ADR-RES ovarian = system: NCI/ADR-RES ovarian
NCI-H23 lung = system: NCI-H23 lung
RXF 393 renal = system: RXF 393 renal
TK-10 renal = system: TK-10 renal
HOP-92 NSCLC = system: HOP-92 NSCLC
IGROV1 ovarian = system: IGROV1 ovarian
SK-MEL-5 melanoma = system: SK-MEL-5 melanoma
SR leukemia = system: SR leukemia
HL-60(TB) leukemia = system: HL-60(TB) leukemia
NCI-H522 lung = system: NCI-H522 lung

## O=[N+]([O-])/C(C(Cl)=C(Cl)Cl)=C(\NCc1ccccc1)Sc1ccccc1
OVCAR-8 ovarian
  TGI: 32.8 µM
A498 renal
  TGI: 62.2 µM
HOP-62 NSCLC
  TGI: 57.1 µM
HCT-116 colon
  TGI: > 100 µM
KM12 colon
  TGI: 36.9 µM
HT29 colon
  TGI: > 100 µM
OVCAR-4 ovarian
  TGI: 75.4 µM
MOLT-4 leukemia
  TGI: > 100 µM
A549 NSCLC
  TGI: > 100 µM
HS 578T breast
  TGI: 36 µM
NCI-H460 lung
  TGI: > 100 µM
MCF7 breast
  TGI: > 100 µM
CCRF-CEM leukemia
  TGI: > 100 µM
UO-31 renal
  TGI: 38.3 µM
HCT-15 colon
  TGI: 35 µM
CAKI-1 renal
  TGI: > 100 µM
K-562 leukemia
  TGI: > 100 µM
SN12C renal
  TGI: > 100 µM
SK-OV-3 ovarian
  TGI: > 100 µM
BT-549 breast
  TGI: 38.7 µM
786-0 renal
  TGI: > 100 µM
RPMI-8226 leukemia
  TGI: > 100 µM
PC-3 prostate
  TGI: > 100 µM
MDA-N
  TGI: > 100 µM
SF-539 CNS
  TGI: 38.9 µM
DU-145 prostate
  TGI: > 100 µM
U251 CNS
  TGI: > 100 µM
ACHN renal
  TGI: > 100 µM
SW-620 colon
  TGI: 42.6 µM
COLO 205 colon
  TGI: 33.2 µM
SNB-75 CNS
  TGI: 63.3 µM
UACC-257 melanoma
  TGI: > 100 µM
SF-268 CNS
  TGI: 57.4 µM
MDA-MB-435
  TGI: 41.3 µM
LOX IMVI melanoma
  TGI: 26.6 µM
SF-295 CNS
  TGI: 41 µM
NCI-H226 lung
  TGI: 98.3 µM
MALME-3M melanoma
  TGI: 33.3 µM
HCC-2998 colon
  TGI: > 100 µM
M14 melanoma
  TGI: > 100 µM
T-47D breast
  TGI: 71.7 µM
OVCAR-5 ovarian
  TGI: > 100 µM
UACC-62 melanoma
  TGI: > 100 µM
EKVX NSCLC
  TGI: > 100 µM
OVCAR-3 ovarian
  TGI: 34.5 µM
MDA-MB-231 breast
  TGI: > 100 µM
SK-MEL-2 melanoma
  TGI: 84.7 µM
SNB-19 CNS
  TGI: > 100 µM
SK-MEL-28 melanoma
  TGI: 36.8 µM
NCI/ADR-RES ovarian
  TGI: 69.7 µM
NCI-H23 lung
  TGI: 40.1 µM

## NNC(=O)c1cc(Cl)ccc1NC(=O)C12CC3CC(CC(C3)C1)C2
OVCAR-8 ovarian
  TGI: > 100 µM
RXF 393 renal
  TGI: > 100 µM
TK-10 renal
  TGI: > 100 µM
HOP-62 NSCLC
  TGI: > 100 µM
HOP-92 NSCLC
  TGI: > 100 µM
HCT-116 colon
  TGI: 85.5 µM
KM12 colon
  TGI: > 100 µM
HT29 colon
  TGI: 48 µM
OVCAR-4 ovarian
  TGI: > 100 µM
MOLT-4 leukemia
  TGI: > 100 µM
A549 NSCLC
  TGI: 48.2 µM
HS 578T breast
  TGI: > 100 µM
NCI-H460 lung
  TGI: > 100 µM
MCF7 breast
  TGI: > 100 µM
UO-31 renal
  TGI: 45.4 µM
HCT-15 colon
  TGI: > 100 µM
CAKI-1 renal
  TGI: > 100 µM
K-562 leukemia
  TGI: > 100 µM
SN12C renal
  TGI: 62.2 µM
SK-OV-3 ovarian
  TGI: > 100 µM
BT-549 breast
  TGI: > 100 µM
786-0 renal
  TGI: 79.9 µM
IGROV1 ovarian
  TGI: > 100 µM
RPMI-8226 leukemia
  TGI: 69.7 µM
PC-3 prostate
  TGI: > 100 µM
MDA-N
  TGI: 70.5 µM
SK-MEL-5 melanoma
  TGI: 76.5 µM
SF-539 CNS
  TGI: > 100 µM
DU-145 prostate
  TGI: > 100 µM
U251 CNS
  TGI: > 100 µM
ACHN renal
  TGI: 77.8 µM
SW-620 colon
  TGI: > 100 µM
COLO 205 colon
  TGI: > 100 µM
SNB-75 CNS
  TGI: > 100 µM
UACC-257 melanoma
  TGI: 96.2 µM
SF-268 CNS
  TGI: 89.5 µM
MDA-MB-435
  TGI: > 100 µM
LOX IMVI melanoma
  TGI: > 100 µM
SF-295 CNS
  TGI: > 100 µM
NCI-H226 lung
  TGI: > 100 µM
MALME-3M melanoma
  TGI: 68.6 µM
HCC-2998 colon
  TGI: 65 µM
M14 melanoma
  TGI: 31.8 µM
T-47D breast
  TGI: > 100 µM
SR leukemia
  TGI: 88.3 µM
HL-60(TB) leukemia
  TGI: 94.2 µM
OVCAR-5 ovarian
  TGI: 53.9 µM
UACC-62 melanoma
  TGI: > 100 µM
OVCAR-3 ovarian
  TGI: > 100 µM
MDA-MB-231 breast
  TGI: > 100 µM
SK-MEL-2 melanoma
  TGI: > 100 µM
SNB-19 CNS
  TGI: 43.1 µM
NCI-H522 lung
  TGI: > 100 µM
SK-MEL-28 melanoma
  TGI: > 100 µM
NCI/ADR-RES ovarian
  TGI: > 100 µM
NCI-H23 lung
  TGI: > 100 µM
